Experimental data taken from paper PMC10343475, “Systematic Modification of the Substitution Pattern of the 7-Hydroxy-5-oxopyrazolo[4,3-b]pyridine-6-carboxamide Scaffold Enabled the Discovery of New Ligands with High Affinity and Selectivity for the Cannabinoid Type 2 Receptor” (Molecules, 2023).
Several values for one entry are separate records, joined by “and”; a condition that tells them apart may be missing. Equal entries are not always repeated. Where two headings read alike, the source gives them in different places.

Tests used:
[1] = target: T1, human CB2 receptor (Homo sapiens, UniProt P34972); test: Competition binding assay, displacement of [3H]-CP-55,940, CB2R; design: logKiCB2 (nM) Exp.: unit not given here
Description: (§1) Binding at equilibrium was performed as previously reported. […] All compounds were tested following the procedure described by the manufacturer (Perkin Elmer, Italy). […] Ki values were calculated by applying the Cheng–Prusoff equation to the IC50 values (obtained by GraphPad) for the displacement of the bound radioligand by increasing concentrations of the test compound.

[2] = target: human recombinant CB1 receptor (Homo sapiens, UniProt P21554); test: Competition binding assay, displacement of [3H]-CP-55,940, CB1R
Description: as §1

[3] = target: T1, human CB2 receptor; test: cAMP Hunter functional assay in NKH-477-stimulated CHO-K1 cells overexpressing CB2R; details: agonist mode / antagonist mode with JWH-133 4 µM challenge
[4] = membranes from HEK cells, [3H]CP-55,940, mean ± SD, at least three experiments in duplicate, read-out: CB2R Ki
[5] = membranes from HEK cells, [3H]CP-55,940, mean ± SD, at least three experiments in duplicate, read-out: CB1R Ki
[6] = CB2R Ki, membranes from HEK cells, [3H]CP-55,940, mean ± SD, at least three experiments in duplicate
[7] = logKiCB2 (nM) Exp., log of experimental Ki

T1 sequence (P34972 whole entry): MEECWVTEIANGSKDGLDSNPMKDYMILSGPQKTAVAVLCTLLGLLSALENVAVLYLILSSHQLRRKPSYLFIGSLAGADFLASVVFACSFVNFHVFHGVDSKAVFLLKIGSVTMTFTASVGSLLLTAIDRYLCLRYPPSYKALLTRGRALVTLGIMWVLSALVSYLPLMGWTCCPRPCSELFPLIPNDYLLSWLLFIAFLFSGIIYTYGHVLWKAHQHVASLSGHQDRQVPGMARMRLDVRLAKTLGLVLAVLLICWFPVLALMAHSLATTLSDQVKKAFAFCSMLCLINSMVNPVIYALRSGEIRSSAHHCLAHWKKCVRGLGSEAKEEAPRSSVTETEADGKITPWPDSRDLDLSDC
Sequence of human recombinant CB1 receptor (P21554 whole entry): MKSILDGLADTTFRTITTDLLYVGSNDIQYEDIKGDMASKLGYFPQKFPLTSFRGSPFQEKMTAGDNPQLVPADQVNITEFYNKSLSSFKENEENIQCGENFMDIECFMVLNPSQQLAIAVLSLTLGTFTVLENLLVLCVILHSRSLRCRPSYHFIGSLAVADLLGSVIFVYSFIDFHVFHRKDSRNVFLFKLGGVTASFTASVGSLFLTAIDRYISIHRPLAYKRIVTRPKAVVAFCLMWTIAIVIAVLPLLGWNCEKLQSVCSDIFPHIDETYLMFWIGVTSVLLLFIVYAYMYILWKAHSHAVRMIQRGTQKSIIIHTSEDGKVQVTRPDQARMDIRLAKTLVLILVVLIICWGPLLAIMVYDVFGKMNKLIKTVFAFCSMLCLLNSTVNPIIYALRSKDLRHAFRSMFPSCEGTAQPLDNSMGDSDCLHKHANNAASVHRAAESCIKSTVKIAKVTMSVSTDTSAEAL

| Compound | Ki [1, 4] | Ki [2, 5] | SI (selectivity index for CB2R, Ki(CB1R)/Ki(CB2R)) [1] | Ki [1, 6] | logKiCB2 (nM) Exp. ([1]; log of experimental Ki) | further results |
| --- | --- | --- | --- | --- | --- | --- |
| CCCCn1c(=O)c(C(=O)NC(C)(C)C)c(O)c2nn(C)cc21 [Compound 13, 4-(1-Butyl)-N-(tert-butyl)-7-hydroxy-2-methyl-5-oxo-4,5-dihydro-2H-pyrazolo[4,3-b]pyridine-6-carboxamide] | > 10000 nM | > 10 µM | – | – | – | – |
| CCCCn1c(=O)c(C(=O)NC2CCCC2)c(O)c2nn(C)cc21 [Compound 14, 4-(1-Butyl)-N-cyclopentyl-7-hydroxy-2-methyl-5-oxo-4,5-dihydro-2H-pyrazolo[4,3-b]pyridine-6-carboxamide] | > 10000 nM | > 10 µM | – | – | – | – |
| CCCCn1c(=O)c(C(=O)NC2CCCCCCC2)c(O)c2nn(C)cc21 [Compound 15, 4-(1-Butyl)-N-cyclooctyl-7-hydroxy-2-methyl-5-oxo-4,5-dihydro-2H-pyrazolo[4,3-b]pyridine-6-carboxamide] | – | > 10 µM | >1107 | < 20 nM and 9.03 nM | – | Functional behavior at CB2R [3]: antagonist/inverse agonist behavior; Ki [1, 7]: 14.5 nM |
| CCCCn1c(=O)c(C(=O)Nc2ccc(F)cc2)c(O)c2nn(C)cc21 [Compound 16, 4-(1-Butyl)-N-(4-fluorophenyl)-7-hydroxy-2-methyl-5-oxo-4,5-dihydro-2H-pyrazolo[4,3-b]pyridine-6-carboxamide] | > 10000 nM | > 10 µM | – | – | – | – |
| CCCCn1c(=O)c(C(=O)NCc2ccc(F)cc2)c(O)c2nn(C)cc21 [Compound 17, 4-(1-Butyl)-N-(4-fluorobenzyl)-7-hydroxy-2-methyl-5-oxo-4,5-dihydro-2H-pyrazolo[4,3-b]pyridine-6-carboxamide] | > 10000 nM | > 10 µM | – | – | – | – |
| CCCCn1c(=O)c(C(=O)NC2CCCc3ccccc32)c(O)c2nn(C)cc21 (stereo not shown) [Compound 18, 4-(1-Butyl)-7-hydroxy-2-methyl-5-oxo-N-(1,2,3,4-tetrahydronaphthalen-1-yl)-4,5-dihydro-2H-pyrazolo[4,3-b]pyridine-6-carboxamide] | – | > 10 µM | >578 | < 20 nM and 17.3 nM | – | Functional behavior at CB2R [3]: antagonist/inverse agonist behavior; Ki [1, 7]: 24 nM |
| CCCCn1c(=O)c(C(=O)NC(c2ccccc2)c2ccccc2)c(O)c2nn(C)cc21 [Compound 19, N-Benzhydryl-4-(1-butyl)-7-hydroxy-2-methyl-5-oxo-4,5-dihydro-2H-pyrazolo[4,3-b]pyridine-6-carboxamide] | 142 ± 110 nM | > 10 µM | >70 | – | 2.15 | – |
| CCCCn1c(=O)c(C(=O)N[C@@H](Cc2ccccc2)C(=O)OC(C)(C)C)c(O)c2nn(C)cc21 [Compound 20, tert-Butyl (4-Butyl-7-hydroxy-2-methyl-5-oxo-4,5-dihydro-2H-pyrazolo[4,3-b]pyridine-6-carbonyl)-L-phenylalaninate] | > 10000 nM | > 10 µM | – | – | – | – |
| CC(C)n1c(=O)c(C(=O)NC23CC4CC(CC(C4)C2)C3)c(O)c2nn(C)cc21 [Compound 21, N-(Adamantan-1-yl)-7-hydroxy-4-isopropyl-2-methyl-5-oxo-4,5-dihydro-2H-pyrazolo[4,3-b]pyridine-6-carboxamide] | – | – | – | > 10000 nM | – | Ki [2]: > 10 µM |
| CC(C)n1c(=O)c(C(=O)NC23CC4CC(CC(O)(C4)C2)C3)c(O)c2nn(C)cc21 [Compound 22, 7-Hydroxy-N-(1-hydroxyadamantan-3-yl)-4-isopropyl-2-methyl-5-oxo-4,5-dihydro-2H-pyrazolo[4,3-b]pyridine-6-carboxamide] | > 10000 nM | > 10 µM | – | – | – | – |
| CC(C)n1c(=O)c(C(=O)NC2CCCCCCC2)c(O)c2nn(C)cc21 [Compound 23, N-Cyclooctyl-7-hydroxy-4-isopropyl-2-methyl-5-oxo-4,5-dihydro-2H-pyrazolo[4,3-b]pyridine-6-carboxamide] | > 10000 nM | > 10 µM | – | – | – | – |
| CC(C)n1c(=O)c(C(=O)NC2CCCc3ccccc32)c(O)c2nn(C)cc21 (stereo not shown) [Compound 24, 7-Hydroxy-4-isopropyl-2-methyl-5-oxo-N-(1,2,3,4-tetrahydronaphthalen-1-yl)-4,5-dihydro-2H-pyrazolo[4,3-b]pyridine-6-carboxamide] | > 10000 nM | > 10 µM | – | – | – | – |
| CC(C)n1c(=O)c(C(=O)NC(c2ccccc2)c2ccccc2)c(O)c2nn(C)cc21 [Compound 25, N-Benzhydryl-7-hydroxy-4-isopropyl-2-methyl-5-oxo-4,5-dihydro-2H-pyrazolo[4,3-b]pyridine-6-carboxamide] | > 10000 nM | > 10 µM | – | – | – | – |
| COc1ccc(Cn2c(=O)c(C(=O)NC34CC5CC(CC(C5)C3)C4)c(O)c3nn(C)cc32)c(OC)c1 [Compound 27, N-(Adamantan-1-yl)-4-(2,4-dimethoxybenzyl)-7-hydroxy-2-methyl-5-oxo-4,5-dihydro-2H-pyrazolo[4,3-b]pyridine-6-carboxamide] | > 10000 nM | > 10 µM | – | – | – | CB2 receptor affinity in words [1]: completely inactive; melting point: > 270 °C |
| CCn1cc2c(n1)c(O)c(C(=O)NC13CC4CC(CC(C4)C1)C3)c(=O)n2CC [Compound 33, N-(Adamantan-1-yl)-2,4-diethyl-7-hydroxy-5-oxo-4,5-dihydro-2H-pyrazolo[4,3-b]pyridine-6-carboxamide] | 24 ± 15.3 nM | > 10 µM | >416 | – | 1.38 | melting point: 245 to 247 °C |
| CCCCn1c(=O)c(C(=O)NC(C)(C)C)c(O)c2nn(CC)cc21 [Compound 34, 4-(1-Butyl)-N-(tert-butyl)-2-ethyl-7-hydroxy-5-oxo-4,5-dihydro-2H-pyrazolo[4,3-b]pyridine-6-carboxamide] | 106 ± 18.1 nM | > 10 µM | >95 | – | 2.02 | – |
| CCCCn1c(=O)c(C(=O)NC23CC4CC(CC(C4)C2)C3)c(O)c2nn(CC)cc21 [Compound 35, N-(Adamantan-1-yl)-4-(1-butyl)-2-ethyl-7-hydroxy-5-oxo-4,5-dihydro-2H-pyrazolo[4,3-b]pyridine-6-carboxamide] | – | 0.102 ± 0.0152 µM | 227 | < 20 nM and 0.45 nM | −0.35 | Functional behavior at CB2R [3]: antagonist/inverse agonist behavior |
| CCCCn1c(=O)c(C(=O)NC23CC4CC(CC(C4)C2)C3)c(O)c2c1c(C)nn2C [Compound 51, N-(Adamantan-1-yl)-4-(1-butyl)-7-hydroxy-1,3-dimethyl-5-oxo-4,5-dihydro-1H-pyrazolo[4,3-b]pyridine-6-carboxamide] | – | > 10 µM | >280 | 35.6 ± 19.5 nM | 1.55 | melting point: 162 to 165 °C |
| CCCCCn1c(=O)c(C(=O)NC23CC4CC(CC(C4)C2)C3)c(O)c2c1c(C)nn2C [Compound 52, N-(Adamantan-1-yl)-7-hydroxy-1,3-dimethyl-5-oxo-4-(1-pentyl)-4,5-dihydro-1H-pyrazolo[4,3-b]pyridine-6-carboxamide] | – | > 10 µM | >293 | 34.1 ± 4.88 nM | 1.53 | melting point: 167 to 169 °C |
| Cc1c2c(nn1C)c(O)c(C(=O)NC13CC4CC(CC(C4)C1)C3)c(=O)n2C(C)C [Compound 53, N-(Adamantan-1-yl)-7-hydroxy-4-isopropyl-2,3-dimethyl-5-oxo-4,5-dihydro-2H-pyrazolo[4,3-b]pyridine-6-carboxamide] | > 10000 nM | > 10 µM | – | – | – | CB2 receptor affinity in words [1]: inactive; melting point: > 260 °C |
| CCCCn1c(=O)c(C(=O)NC23CC4CC(CC(C4)C2)C3)c(O)c2nn(C)c(C)c21 [Compound 54, N-(Adamantan-1-yl)-4-(1-butyl)-7-hydroxy-2,3-dimethyl-5-oxo-4,5-dihydro-2H-pyrazolo[4,3-b]pyridine-6-carboxamide] | – | > 10 µM | – | < 20 nM and 2.16 nM | 0.33 | melting point: 213 to 216 °C; CB1 receptor activity in words [2]: not active at all |
| CC(C)n1c(=O)c(C(=O)NC23CC4CC(CC(C4)C2)C3)c(O)c2n[nH]cc21 [Compound 56] | > 10000 nM | > 10 µM | – | – | – | CB2 receptor affinity in words [1]: inactive |
| C#CCn1ncc2c1c(O)c(C(=O)NC13CC4CC(CC(C4)C1)C3)c(=O)n2C(C)C [Compound 58] | – | – | >162 | 61.8 ± 20.8 nM | 1.79 | Ki [2]: > 10 µM |
| C#CCn1cc2c(n1)c(O)c(C(=O)NC13CC4CC(CC(C4)C1)C3)c(=O)n2C(C)C [Compound 59] | – | – | – | > 10000 nM | – | CB2 receptor affinity in words [1]: inactive; Ki [2]: > 10 µM |
| CC(C)n1c(=O)c(C(=O)NC23CC4CC(CC(C4)C2)C3)c(O)c2c1cnn2CC#N [Compound 60] | 48.5 ± 10.9 nM | > 10 µM | >206 | – | 1.68 | – |
| CC(C)n1c(=O)c(C(=O)NC23CC4CC(CC(C4)C2)C3)c(O)c2nn(CC(=O)OC(C)(C)C)cc21 [Compound 61] | > 10000 nM | > 10 µM | – | – | – | CB2 receptor affinity in words [1]: inactive |
| CC(C)n1c(=O)c(C(=O)NC23CC4CC(CC(C4)C2)C3)c(O)c2nn(Cc3ccc(F)cc3)cc21 [Compound 62] | > 10000 nM | > 10 µM | – | – | – | CB2 receptor affinity in words [1]: inactive |
